Test results taken from US8932597B2 (priority 2008, dated 2015).

Tested on: anti-M2 human monoclonal antibody Z3G1
Format: binding

Substance	Signal (peptides that bind to Z3G1)	also measured
1336 (MSLLCEVGMSCLTEV; epitope peptide) [compound 1336]	2846	–
1581 (SLLFEVETPIRNEWGCRCNDSSD; epitope peptide) [compound 1581]	–	Signal (peptides that show specific binding to Z3G1): 2137
1571 (NLLTEVETPIRNEWGCRCNDSSD; epitope peptide) [compound 1571]	–	Signal (peptides that show specific binding to Z3G1): 2135
1375 (SLLTEVETPIRNEWCC; epitope peptide) [compound 1375]	1813	–
1284 (MSLLHEVETPIRNEWGCRCN; epitope peptide) [compound 1284]	2691	–
1328 (MSLLCEVETPCRNE; epitope peptide) [compound 1328]	2652	–
1335 (MCLLTEVGMSCLTEV; epitope peptide) [compound 1335]	1869	–
1337 (MCLLTEVGMSLCTEV; epitope peptide) [compound 1337]	2513	–
1265 (MWLLTEVETPIRNEWGCRCN; epitope peptide) [compound 1265]	2615	–
1279 (MSLLAEVETPIRNEWGCRCN; epitope peptide) [compound 1279]	2807	–
1552 (SLLCEVGSLCTEV; epitope peptide) [compound 1552]	–	Signal (peptides that show specific binding to Z3G1): 2722
CSLLTEVGSLLTEV (epitope peptide) [SEQ ID NO: 283]	–	Binding to Z3G1 (in words): recognized
439 (SLLTEVETPIRNE; epitope peptide) [compound 439]	1819	–
1255 (MHLLTEVETPIRNEWGCRCN; epitope peptide) [compound 1255]	2449	–
1392 (SLLCEVETPCRNEWG; epitope peptide) [compound 1392]	2465	–
1286 (MSLLKEVETPIRNEWGCRCN; epitope peptide) [compound 1286]	2825	–
1396 (SLLCEVETPIRNEWG; epitope peptide) [compound 1396]	2384	–
1395 (SLLCEVCTPIRNEWG; epitope peptide) [compound 1395]	2384	–
1473 (CEVETPIRNESLLTEVETPCEVETPIRNE; epitope peptide; MISC_FEATURE (1)..(1): C is an attachment site for a CLIP; MISC_FEATURE (10)..(10): E is an attachment site for a CLIP; MISC_FEATURE (11)..(11): S is an attachment site for a CLIP; MISC_FEATURE (29)..(29): E is an attachment site for a CLIP) [compound 1473]	2006	–
1333 (MSLLCEVETPIRNE; epitope peptide) [compound 1333]	2454	–
1305 (MSLLTEVKTPIRNEWGCRCN; epitope peptide) [compound 1305]	2708	–

Substance	Signal (peptides that bind to Z3G1)	also measured
1479 (CTEVETPIRNLLTEVETPICEVETPIRNE; epitope peptide; MISC_FEATURE (1)..(1): C is an attachment site for a CLIP; MISC_FEATURE (10)..(10): N is an attachment site for a CLIP; MISC_FEATURE (11)..(11): L is an attachment site for a CLIP; MISC_FEATURE (29)..(29): E is an attachment site for a CLIP) [compound 1479]	1627	–
1357 (CLLTEVETCIRNE; epitope peptide) [compound 1357]	1661	–
1285 (MSLLIEVETPIRNEWGCRCN; epitope peptide) [compound 1285]	2371	–
1369 (SLLTEVETPCRCE; epitope peptide) [compound 1369]	1546	–
1368 (SLLTEVETPCRNE; epitope peptide) [compound 1368]	1665	–
1291 (MSLLQEVETPIRNEWGCRCN; epitope peptide) [compound 1291]	2792	–
1259 (MMLLTEVETPIRNEWGCRCN; epitope peptide) [compound 1259]	2666	–
1298 (MSLLTTVETPIRNEWGCRCN; epitope peptide) [compound 1298]	2699	–
1580 (SLLEEVETPIRNEWGCRCNDSSD; epitope peptide) [compound 1580]	–	Signal (peptides that show specific binding to Z3G1): 2420
1280 (MSLLDEVETPIRNEWGCRCN; epitope peptide) [compound 1280]	2763	–
1364 (SLLCEVETPCRNE; epitope peptide) [compound 1364]	2035	–
1579 (SLLDEVETPIRNEWGCRCNDSSD; epitope peptide) [compound 1579]	–	Signal (peptides that show specific binding to Z3G1): 2276
1299 (MSLLTEVATPIRNEWGCRCN; epitope peptide) [compound 1299]	2633	–
1384 (CLLCEVETPIRNEWG; epitope peptide) [compound 1384]	2388	–
1294 (MSLLVEVETPIRNEWGCRCN; epitope peptide) [compound 1294]	2732	–
1460 (CEVETPIRNELLTEVETPICTEVETPIRN; epitope peptide; MISC_FEATURE (1)..(1): C is an attachment site for a CLIP; MISC_FEATURE (10)..(10): E is an attachment site for a CLIP; MISC_FEATURE (11)..(11): L is an attachment site for a CLIP; MISC_FEATURE (29)..(29): N is an attachment site for a CLIP) [compound 1460]	1620	–
1481 (CVETPIRNEWLLTEVETPICEVETPIRNE; epitope peptide; MISC_FEATURE (1)..(1): C is an attachment site for a CLIP; MISC_FEATURE (10)..(10): W is an attachment site for a CLIP; MISC_FEATURE (11)..(11): L is an attachment site for a CLIP; MISC_FEATURE (29)..(29): E is an attachment site for a CLIP) [compound 1481]	1592	–
1345 (MSCLCECGMSLLCEV; epitope peptide) [compound 1345]	1307	–
1478 (CLTEVETPIRLLTEVETPICEVETPIRNE; epitope peptide; MISC_FEATURE (1)..(1): C is an attachment site for a CLIP; MISC_FEATURE (10)..(10): R is an attachment site for a CLIP; MISC_FEATURE (11)..(11): L is an attachment site for a CLIP; MISC_FEATURE (29)..(29): E is an attachment site for a CLIP) [compound 1478]	1681	–
1394 (SLLCEVECPIRNEWG; epitope peptide) [compound 1394]	2529	–
1356 (CLLTEVETPCRNE; epitope peptide) [compound 1356]	1991	–

Substance	Signal (peptides that bind to Z3G1)	also measured
1575 (WLLTEVETPIRNEWGCRCNDSSD; epitope peptide) [compound 1575]	–	Signal (peptides that show specific binding to Z3G1): 2180
1348 (MSLCTEVGCSCLCEV; epitope peptide) [compound 1348]	2001	–
1342 (MSLLTCVGMSLLCEV; epitope peptide) [compound 1342]	2712	–
1314 (CMSLCTEVETPIRNE; epitope peptide) [compound 1314]	1705	–
1359 (CLLTEVCTPIRNE; epitope peptide) [compound 1359]	1585	–
1256 (MILLTEVETPIRNEWGCRCN; epitope peptide) [compound 1256]	1634	–
1397 (CLLTEVCTPIRNEWG; epitope peptide) [compound 1397]	1634	–
1344 (MCLCTCVGMSLLCEV; epitope peptide) [compound 1344]	2431	–
1300 (MSLLTEVDTPIRNEWGCRCN; epitope peptide) [compound 1300]	2856	–
1282 (MSLLFEVETPIRNEWGCRCN; epitope peptide) [compound 1282]	2581	–
1323 (MCLLTEVCTPIRNE; epitope peptide) [compound 1323]	1407	–
1561 (SLLCEVGCLCTCV; epitope peptide) [compound 1561]	–	Signal (peptides that show specific binding to Z3G1): 2331
1303 (MSLLTEVHTPIRNEWGCRCN; epitope peptide) [compound 1303]	2751	–
1360 (CLLCEVETPIRNE; epitope peptide) [compound 1360]	2314	–
1271 (MSLFTEVETPIRNEWGCRCN; epitope peptide) [compound 1271]	2115	–
1289 (MSLLNEVETPIRNEWGCRCN; epitope peptide) [compound 1289]	2824	–
1257 (MKLLTEVETPIRNEWGCRCN; epitope peptide) [compound 1257]	2629	–
1462 (CETPIRNEWGLLTEVETPICTEVETPIRN; epitope peptide; MISC_FEATURE (1)..(1): C is an attachment site for a CLIP; MISC_FEATURE (10)..(10): G is an attachment site for a CLIP; MISC_FEATURE (11)..(11): L is an attachment site for a CLIP; MISC_FEATURE (29)..(29): N is an attachment site for a CLIP) [compound 1462]	1710	–
1582 (SLLGEVETPIRNEWGCRCNDSSD; epitope peptide) [compound 1582]	–	Signal (peptides that show specific binding to Z3G1): 2301
